Experimental data from US20190119284A1, “ErbB Inhibitors and Uses Thereof” (The Regents of the University of California, priority 2016, published 2019).
Where “and” joins values, the source holds several entries; their conditions need not be identical. Identical values can stand only once. Like-named read-outs stand apart in the source and are kept apart here. One block for each molecule: values may come before it.

Columns and labels:
HER2+/2VE Ba/F3 line = assay: Ba/F3 proliferation assay, HER2+/2VE; assay type: cell-based; conditions: Mus musculus, BaF3; Tables 7 and 8
Outline: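 Ba/F3 cells combined with drug dilutions and growth factor as needed (10 ng/mL IL-3 or 6.25 ng/mL NRG), 48 h at 37° C. Proliferation by CellTiter-Glo, normalized to DMSO, fitted to log(inhibitor) vs response with variable slope; biological triplicates in technical triplicate.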

[1] = Mouse Liver Microsome stability assay; assay type: in vitro ADME; conditions: mouse liver microsomes
[2] = test system: parental Ba/F3 cells + IL-3; assay: Ba/F3 proliferation assay, Parental + IL-3; assay type: cell-based; conditions: Mus musculus, BaF3; Tables 7 and 8; read-out: Ba/F3 line IC50, Parental + IL-3
Outline: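 Ba/F3 cells were combined with drug dilutions plus growth factor (10 ng/mL IL-3, or 6.25 ng/mL NRG where needed) and incubated 48 h at 37 °C. Viability read by CellTiter-Glo, normalized to DMSO. Log(inhibitor)-response fit with variable slope; biological triplicates.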

Axl+ Ba/F3 cells = biological target: T1, Axl+ Ba/F3 cells (Homo sapiens, UniProt P30530); assay: Ba/F3 proliferation assay, Axl+; assay type: cell-based; conditions: Tables 7 and 8; read-out: Ba/F3 line IC50, Axl+
T1 sequence (P30530 1-894): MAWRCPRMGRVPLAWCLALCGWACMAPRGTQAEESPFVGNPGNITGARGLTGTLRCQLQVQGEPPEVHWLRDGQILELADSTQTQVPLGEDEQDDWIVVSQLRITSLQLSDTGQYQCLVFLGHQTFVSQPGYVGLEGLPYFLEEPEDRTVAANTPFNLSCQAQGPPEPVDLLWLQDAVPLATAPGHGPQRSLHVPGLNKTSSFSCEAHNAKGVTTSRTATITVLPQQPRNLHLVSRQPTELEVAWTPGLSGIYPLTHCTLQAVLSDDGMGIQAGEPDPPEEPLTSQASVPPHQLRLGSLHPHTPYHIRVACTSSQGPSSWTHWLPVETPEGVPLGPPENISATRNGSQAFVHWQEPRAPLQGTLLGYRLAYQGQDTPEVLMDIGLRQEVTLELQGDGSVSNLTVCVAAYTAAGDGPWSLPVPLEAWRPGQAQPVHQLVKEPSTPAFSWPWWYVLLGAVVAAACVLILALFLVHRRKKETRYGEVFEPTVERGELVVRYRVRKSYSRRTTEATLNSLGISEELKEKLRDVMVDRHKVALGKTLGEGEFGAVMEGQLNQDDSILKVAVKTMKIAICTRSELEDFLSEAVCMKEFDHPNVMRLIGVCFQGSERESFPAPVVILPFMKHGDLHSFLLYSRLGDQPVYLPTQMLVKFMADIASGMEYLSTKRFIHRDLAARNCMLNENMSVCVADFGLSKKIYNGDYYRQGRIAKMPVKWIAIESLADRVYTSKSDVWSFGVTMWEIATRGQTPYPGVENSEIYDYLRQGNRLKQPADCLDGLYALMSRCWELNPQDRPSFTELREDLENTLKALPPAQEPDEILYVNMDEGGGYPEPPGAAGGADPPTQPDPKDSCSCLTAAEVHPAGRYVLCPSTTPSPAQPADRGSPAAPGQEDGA
Protocol: To validate the screen and test the effectiveness of counter-screening with either the same 2YF/3wt Ba/F3 cell line or the parental Ba/F3's in the presence of IL-3 to remove cytotoxic primary hits, we first tested a panel of kinase inhibitors with established mechanisms of action.
For Axl+ cells, the transduced cells were spun down at 500×g for 5 min and resuspended in media supplemented with 10 ng/mL IL-3 and 3 μg/mL puromycin (Invitrogen). Cells were maintained in these conditions for 7 days, passaging as required. After 7 days the cells were spun down, washed with fresh media, and then suspended in IL-3 free media. The cells were maintained in these conditions for 2 weeks to select for an IL-3 independent population of Axl+ driven cells.
Proliferation Assays. For adherent cell lines, cells were plated onto opaque white 96 well plates (Greiner cat #655083) and allowed to adhere overnight. The following day media was changed to fresh media that contained either DMSO or the indicated concentration of drug plus NRG (50 ng/mL final concentration) as indicated. Plates were incubated at 37° C. for 72 h and proliferation was read out using Cell Titer Glo (Promega) according to the manufacturer's protocol. For Ba/F3 cell proliferation, cells, drug dilution, and any necessary growth factors (10 ng/mL IL-3 or 6.25 ng/mL NRG) were combined in a well of a 96 well plate. Plates were incubated at 37° C. for 48 h and proliferation was read out using Cell Titer Glo according to the manufacturer's protocol. For all normalized assays, proliferation was normalized to the DMSO control condition. All graphs were plotted in GraphPad Prism 6 and fit with a non-linear regression of the log(inhibitor) vs response with a variable slope where shown. All graphs are averages (+/−standard deviation) of biological triplicates each performed in technical triplicate unless otherwise noted. If only one biological replicate was performed standard deviations were derived from the technical replicates.

[3] = biological target: 2YF/3wt + NRG Ba/F3 cells (HER2YF/HER3wt) (Homo sapiens, UniProt P04626, Y1005F/Y1023F/Y1112F/Y1127F/Y1139F/Y1196F/Y1221F/Y1222F/Y1248F, cells depend on it); assay: Ba/F3 proliferation assay, 2YF/3wt + NRG; assay type: cell-based; conditions: Tables 7 and 8; read-out: Ba/F3 line IC50, HER2YF/HER3 + NRG
Outline: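 Ba/F3 cells stably expressing HER3 and HER2 with 9 C-terminal Tyr→Phe mutations, selected for NRG dependence after IL-3 withdrawal. Cells were given DMSO or compound plus NRG (50 ng/mL final); proliferation normalized to DMSO, fit by log(inhibitor) vs response with variable slope.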

[4] = Pharmacokinetic study, IP administration in male CD-1 mice; assay type: in vivo
[5] = Pharmacokinetic study, IV administration in male CD-1 mice; assay type: in vivo
[6] = IP 2.0 mg/kg, individual mice M1-M3
[7] = IP 2.0 mg/kg, individual mice M1-M3, 2 mg/kg
[8] = IP 2.0 mg/kg, plasma, individual mice M1-M3, 2 mg/kg
[9] = male, CD-1, mouse, plasma, ip, 2 mg/kg, Mean
[10] = male, CD-1, mouse, plasma, ip, 2 mg/kg, individual mice M1-M3
[11] = IV 2.0 mg/kg, individual mice M1-M3, 2 mg/kg
[12] = IV 2.0 mg/kg, plasma, individual mice M1-M3, 2 mg/kg
[13] = male, CD-1, mouse, plasma, iv, 2 mg/kg, Mean
[14] = male, CD-1, mouse, plasma, iv, 2 mg/kg, individual mice M1-M3

2YF/3wt + NRG Ba/F3 cells (HER2YF/HER3wt), sequence (P04626 whole entry Y1005F/Y1023F/Y1112F/Y1127F/Y1139F/Y1196F/Y1221F/Y1222F/Y1248F): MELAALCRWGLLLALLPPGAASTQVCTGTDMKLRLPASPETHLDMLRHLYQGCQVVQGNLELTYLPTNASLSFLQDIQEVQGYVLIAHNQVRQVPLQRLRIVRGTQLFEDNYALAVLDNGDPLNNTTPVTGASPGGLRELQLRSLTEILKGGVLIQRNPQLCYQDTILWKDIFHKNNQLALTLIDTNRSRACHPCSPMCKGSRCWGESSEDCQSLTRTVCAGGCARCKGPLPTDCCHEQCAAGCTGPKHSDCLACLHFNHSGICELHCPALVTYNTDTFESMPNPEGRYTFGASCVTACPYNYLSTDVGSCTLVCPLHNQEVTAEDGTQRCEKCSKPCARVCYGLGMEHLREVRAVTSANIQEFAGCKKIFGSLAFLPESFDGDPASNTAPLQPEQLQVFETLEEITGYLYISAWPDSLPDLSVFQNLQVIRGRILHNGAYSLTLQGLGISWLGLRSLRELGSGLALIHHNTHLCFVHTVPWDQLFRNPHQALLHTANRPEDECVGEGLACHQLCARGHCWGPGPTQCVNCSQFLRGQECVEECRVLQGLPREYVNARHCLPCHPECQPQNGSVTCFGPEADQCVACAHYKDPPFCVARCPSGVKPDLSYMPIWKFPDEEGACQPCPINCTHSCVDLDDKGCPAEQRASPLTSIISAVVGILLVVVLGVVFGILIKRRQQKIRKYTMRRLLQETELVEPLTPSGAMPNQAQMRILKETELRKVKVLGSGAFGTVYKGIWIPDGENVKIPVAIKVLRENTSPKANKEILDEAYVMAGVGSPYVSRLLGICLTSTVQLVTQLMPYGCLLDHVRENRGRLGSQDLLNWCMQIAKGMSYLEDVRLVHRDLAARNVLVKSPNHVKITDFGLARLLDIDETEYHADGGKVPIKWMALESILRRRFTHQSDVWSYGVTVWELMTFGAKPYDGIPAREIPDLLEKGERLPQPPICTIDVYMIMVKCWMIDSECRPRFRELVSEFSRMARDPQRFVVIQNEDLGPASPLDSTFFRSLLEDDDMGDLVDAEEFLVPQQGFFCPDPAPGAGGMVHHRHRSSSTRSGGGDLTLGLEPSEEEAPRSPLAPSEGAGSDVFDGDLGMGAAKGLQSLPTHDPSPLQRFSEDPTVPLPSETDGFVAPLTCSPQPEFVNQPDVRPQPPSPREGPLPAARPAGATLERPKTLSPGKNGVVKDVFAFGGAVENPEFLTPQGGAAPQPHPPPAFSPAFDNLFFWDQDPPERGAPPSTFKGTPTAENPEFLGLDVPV

- IC50 (HER2+/2VE Ba/F3 line): 70.3 nM
- WuXi Microsomal stability (Mouse Extraction Ratio) [1]: 0.948
- GI50 (Axl+ Ba/F3 cells): 1170 nM
- GI50 [3]: 6.8 nM
SMILES: COc1ccc(-c2ccoc2)cc1Nc1ncnc2[nH]cc(-c3cc[nH]n3)c12 [compound 178]
- IC50 [2]: 2540 nM

- Plasma Concentration at 5.00 h ([4]; IP 2.0 mg/kg, Mean): BLQ
- Plasma Concentration at 8.00 h ([4]; IP 2.0 mg/kg, Mean): BLQ
- Plasma Concentration at 24.00 h ([4]; IP 2.0 mg/kg, Mean): BLQ
- Plasma Concentration at 5.00 h [4, 6]: BLQ
- Plasma Concentration at 8.00 h [4, 6]: BLQ
- Plasma Concentration at 24.00 h [4, 6]: BLQ
- Plasma Concentration at 0.25 h [4, 7]: 189.54 ng/mL and 198.56 ng/mL
- Plasma Concentration at 1.00 h [4, 7]: 69.73 ng/mL and 76.68 ng/mL
- Plasma Concentration at 3.00 h [4, 7]: 4.17 ng/mL and 2.33 ng/mL
- AUCExtra ([4]; IP 2.0 mg/kg, plasma, Mean): 1.11%
- AUC0-inf [4, 8]: 163.10 ng·h/mL and 164.87 ng·h/mL
- AUC0-last [4, 8]: 160.10 ng·h/mL and 163.46 ng·h/mL
- AUCExtra [4, 8]: 0.63% and 1.84% and 0.86%
- AUCall [4, 8]: 160.10 ng·h/mL and 163.46 ng·h/mL
- Cmax [4, 8]: 189.54 ng/mL and 198.56 ng/mL
- Half-life (T½) [4, 8]: 30 min and 25.2 min
- MRT0-last [4, 8]: 48.6 min
- AUC [4, 9]: 175 ng·h/mL
- AUC(0-t) [4, 9]: 175 ng·h/mL
- concentration at 0.25 h [4, 9]: 210 ng/mL
- concentration at 1 h [4, 9]: 82.3 ng/mL
- concentration at 3 h [4, 9]: 2.92 ng/mL
- AUC0-inf ([4]; male, CD-1, mouse, plasma, ip, 2 mg/kg, Mean, read-out: AUC0-inf): 177 ng·h/mL
- Cmax ([4]; male, CD-1, mouse, plasma, ip, 2 mg/kg, Mean, read-out: Cmax): 210 ng/mL
- MRT last ([4]; male, CD-1, mouse, plasma, ip, 2 mg/kg, Mean, read-out: MRT0-last): 46.8 min
- Half-life (T½) ([4]; male, CD-1, mouse, plasma, ip, 2 mg/kg, Mean, read-out: Oral T½ (converted)): 26.4 min
- AUC [4, 10]: 203 ng·h/mL
- AUC(0-t) [4, 10]: 203 ng·h/mL
- concentration at 0.25 h [4, 10]: 242 ng/mL
- concentration at 1 h [4, 10]: 101 ng/mL
- concentration at 3 h [4, 10]: 2.25 ng/mL
- AUC0-inf ([4]; male, CD-1, mouse, plasma, ip, 2 mg/kg, individual mice M1-M3, read-out: AUC0-inf): 204 ng·h/mL
- Cmax ([4]; male, CD-1, mouse, plasma, ip, 2 mg/kg, individual mice M1-M3, read-out: Cmax): 242 ng/mL
- MRT last ([4]; male, CD-1, mouse, plasma, ip, 2 mg/kg, individual mice M1-M3, read-out: MRT0-last): 45.6 min
- Half-life (T½) ([4]; male, CD-1, mouse, plasma, ip, 2 mg/kg, individual mice M1-M3, read-out: Oral T½ (converted)): 24 min
- Tmax ([4]; male, CD-1, mouse, IP 2.0 mg/kg, plasma, individual mice M1-M3): 15 min
- Plasma Concentration at 0.08 h [5, 11]: 53.28 ng/mL and 64.54 ng/mL
- Plasma Concentration at 0.25 h [5, 11]: 29.14 ng/mL and 34.06 ng/mL
- Plasma Concentration at 1.00 h [5, 11]: 22.71 ng/mL and 12.93 ng/mL
- Plasma Concentration at 3.00 h [5, 11]: 11.36 ng/mL and 8.08 ng/mL
- Plasma Concentration at 5.00 h [5, 11]: 7.57 ng/mL and 6.55 ng/mL
- Plasma Concentration at 8.00 h [5, 11]: 7.32 ng/mL and 9.38 ng/mL
- Plasma Concentration at 24.00 h [5, 11]: 5.33 ng/mL and 3.54 ng/mL
- AUCExtra ([5]; IV 2.0 mg/kg, plasma, Mean): 46.09%
- AUC0-last [5, 12]: 205.32 ng·h/mL and 185.37 ng·h/mL
- AUCExtra [5, 12]: 94.18% and 57.85% and 34.33%
- AUCall [5, 12]: 205.32 ng·h/mL and 185.37 ng·h/mL
- C0 [5, 12]: 71.91 ng/mL and 88.67 ng/mL
- MRT0-last [5, 12]: 542 min
- T½ [5, 12]: 302.57 h and 36.64 h and 18.98 h
- Vd [5, 12]: 217.05 L/kg and 193.96 L/kg
- AUC [5, 13]: 191 ng·h/mL
- AUC(0-t) [5, 13]: 191 ng·h/mL
- clearance [5, 13]: 93.3 mL/min/kg
- concentration at 0.08 h [5, 13]: 58.9 ng/mL
- concentration at 0.25 h [5, 13]: 31.6 ng/mL
- concentration at 1 h [5, 13]: 17.8 ng/mL
- concentration at 3 h [5, 13]: 9.72 ng/mL
- concentration at 5 h [5, 13]: 7.06 ng/mL
- concentration at 8 h [5, 13]: 8.35 ng/mL
- concentration at 24 h [5, 13]: 4.44 ng/mL
- AUC0-inf ([5]; male, CD-1, mouse, plasma, iv, 2 mg/kg, Mean, read-out: AUC0-inf): 385 ng·h/mL
- C0 ([5]; male, CD-1, mouse, plasma, iv, 2 mg/kg, Mean, read-out: C0): 77.7 ng/mL
- MRT last ([5]; male, CD-1, mouse, plasma, iv, 2 mg/kg, Mean, read-out: MRT0-last): 568 min
- half-life ([5]; male, CD-1, mouse, plasma, iv, 2 mg/kg, Mean, read-out: T½ (converted)): 1670 min
- Vd ([5]; male, CD-1, mouse, plasma, iv, 2 mg/kg, Mean, read-out: Vd): 206 L/kg
- AUC [5, 14]: 183 ng·h/mL
- AUC(0-t) [5, 14]: 183 ng·h/mL
- concentration at 0.08 h [5, 14]: 55.1 ng/mL
- concentration at 0.25 h [5, 14]: 31.9 ng/mL
- concentration at 1 h [5, 14]: 12.3 ng/mL
- concentration at 3 h [5, 14]: 6.96 ng/mL
- concentration at 5 h [5, 14]: 7.32 ng/mL
- concentration at 8 h [5, 14]: 6.02 ng/mL
- concentration at 24 h [5, 14]: 6.79 ng/mL
- C0 ([5]; male, CD-1, mouse, plasma, iv, 2 mg/kg, individual mice M1-M3, read-out: C0): 72.4 ng/mL
- MRT last ([5]; male, CD-1, mouse, plasma, iv, 2 mg/kg, individual mice M1-M3, read-out: MRT0-last): 618 min
- Vd ([5]; male, CD-1, mouse, plasma, iv, 2 mg/kg, individual mice M1-M3, read-out: Vd): 277 L/kg
- WuXi Microsomal stability (Mouse Extraction Ratio) [1]: <0.3
SMILES: COc1ccc(-c2cccc(F)c2)cc1Nc1ncnc2[nH]nc(-c3cc[nH]n3)c12 [8168B]
- AUC0-inf [5, 12]: 3147.06 ng·h/mL and 487.06 ng·h/mL and 282.28 ng·h/mL
- Cl [5, 12]: 10.59 mL/min/kg and 68.44 mL/min/kg and 118.09 mL/min/kg
